ChEMBL document CHEMBL1134121, “Biphenyls as surrogates of the steroidal backbone. Part 2: discovery of a novel family of non-steroidal 5-alpha-reductase inhibitors” (Bioorg Med Chem Lett, 2001)

target: T1, 3-oxo-5-alpha-steroid 4-dehydrogenase 2 (Homo sapiens, UniProt P31213); assay: Compound was tested for the inhibition of Steroid 5-alpha-reductase type 2 of human prostates; type: tissue-based, Prostate gland; details: not given
T1 sequence (P31213 whole entry): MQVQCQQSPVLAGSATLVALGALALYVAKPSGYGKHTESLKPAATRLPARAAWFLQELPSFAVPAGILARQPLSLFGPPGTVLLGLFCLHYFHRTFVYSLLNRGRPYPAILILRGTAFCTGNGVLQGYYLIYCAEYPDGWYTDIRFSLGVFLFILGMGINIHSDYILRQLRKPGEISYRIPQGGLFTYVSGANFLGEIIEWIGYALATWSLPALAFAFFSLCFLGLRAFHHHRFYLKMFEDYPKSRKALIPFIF

| IC50 | Compound |
| --- | --- |
| > 10000 nM | CC(C)N(C(=O)COc1ccc(-c2c(F)cc(C(=O)O)cc2F)cc1)C(C)C |
| > 10000 nM | Cc1cc(C(=O)O)cc(C)c1-c1ccc(OCC(=O)N(C(C)C)C(C)C)cc1 |
| > 10000 nM | CC(C)N(C(=O)COc1cc(Cl)c(-c2ccc(C(=O)O)cc2)c(Cl)c1)C(C)C |
| 870 nM | CC(C)N(C(=O)COc1ccc(-c2ccc(C(=O)O)cc2Cl)cc1)C(C)C |
| 830 nM | CC(C)N(C(=O)COc1ccc(-c2ccc(C(=O)O)cc2)cc1)C(C)C |
| > 10000 nM | CC(C)N(C(=O)COc1ccc(-c2c(Cl)cc(C(=O)O)cc2Cl)cc1)C(C)C |

Further lines, the compound ahead of its results:

| Compound | IC50 |
| --- | --- |
| CC(C)c1cc(-c2ccc(C(=O)O)cc2)cc(C(C)C)c1OCC(=O)N(C(C)C)C(C)C | 71 nM |
| CC(C)N(C(=O)COc1ccc(-c2ccc(C(=O)O)cc2C(F)(F)F)cc1)C(C)C | 570 nM |

target: T2, 3-oxo-5-alpha-steroid 4-dehydrogenase 2 (Homo sapiens) (UniProt P31213); assay: Compound was tested for the inhibition of Steroid 5-alpha-reductase type 2 of human prostates at a concentration of 10e-6 M; type: tissue-based; details: Prostate gland
T2 sequence (whole entry): T1 sequence (P31213 whole entry)

| inhibition | Compound |
| --- | --- |
| 0% | CC(C)N(C(=O)c1cc(I)c(-c2ccc(C(=O)O)cc2)c([N+](=O)[O-])c1)C(C)C |
| 0% | CC(C)N(C(=O)c1cc(N)c(-c2ccc(C(=O)O)cc2)c(N)c1)C(C)C |
| 0% | CC(C)N(C(=O)c1cc(Br)c(-c2ccc(C(=O)O)cc2)c(Br)c1)C(C)C |
| 0% | CC(C)N(C(=O)c1cc(I)c(-c2ccc(C(=O)O)cc2)c(I)c1)C(C)C |
| 37% | CC(C)N(C(=O)Cc1ccc(-c2ccc(C(=O)O)cc2)cc1)C(C)C |
| 26.9% | CC(C(=O)N(C(C)C)C(C)C)c1ccc(-c2ccc(C(=O)O)cc2)cc1 (stereo not drawn) |
| 32.5% | CC(C)N(C(=O)c1ccc(-c2ccc(C(=O)O)cc2)cc1)C(C)C |
| 0% | CC(C)N(C(=O)c1cc([N+](=O)[O-])c(-c2ccc(C(=O)O)cc2)c([N+](=O)[O-])c1)C(C)C |
| 57.5% | CC(C)N(C(=O)COc1ccc(-c2ccc(C(=O)O)cc2)cc1)C(C)C |

target: T1, 3-oxo-5-alpha-steroid 4-dehydrogenase 2; assay: Compound was tested for the inhibition of type 2 5-alpha-reductase of human prostates; type: tissue-based, Prostate gland; details: not given

| IC50 | Compound |
| --- | --- |
| 2000 nM | CCc1cc(OCC(=O)N(C(C)C)C(C)C)ccc1-c1ccc(C(=O)O)cc1 |
| 350 nM | CCc1cc(-c2ccc(C(=O)O)cc2)ccc1OCC(=O)N(C(C)C)C(C)C |
| 9.8 nM | CC(C)N(C(=O)COc1c(F)cc(-c2ccc(C(=O)O)cc2)cc1[N+](=O)[O-])C(C)C |

Further lines, the compound ahead of its results:

| Compound | IC50 |
| --- | --- |
| O=C(COc1c(F)cc(-c2ccc(C(=O)O)cc2)cc1[N+](=O)[O-])NC(c1ccccc1)(c1ccccc1)c1ccccc1 | 92 nM |
| CC(C)N(C(=O)[C@H]1CCC2C3CC[C@H]4NC(=O)CC[C@]4(C)C3CC[C@@]21C)C(C)C (stereo partly drawn) | 41 nM |
| CC(C)N(C(=O)[C@H]1CC[C@H]2[C@@H]3CCc4cc(C(=O)O)ccc4[C@H]3CC[C@]12C)C(C)C | 2.1 nM |
